# Tests used:
# [1] = test system: Lewis Lung Carcinoma (3LL-H59); experiment: Metastasis development after i.v. inoculation of 3LL-H59 cells; assay type: in vivo, Female C57BL/6 mice; settings: Dox 5.0 mg/kg, L61 0.25% w/v, PEG8000 1% w/v, Days 1, 4, 7, 10 animals per group
# Experimental: A highly metastatic clonal subline H59 of Lewis Lung, Carcinoma (3LL-H59) was used as a model. […] These cells were cultured in D-MEM supplemented with 10% FCS at 37° C. in a humidified atmosphere with 5% CO2. After 7 to 10 passes in culture, the cells in their logarithmic growth phase were harvested with trypsin for the following experiments.
# Animals. Female C57BL/6 mice were obtained from Charles River Canada Inc. (St. Constant, Quebec, Canada) and used at 6 to 7 weeks of age. Animals were grouped five per cage with air filter cover under a light (12-h light/dark cycle, light on at 06h00) and temperature-controlled environment (22 ±1° C.). All manipulations of animals were performed under a sterilized laminar. The animals had ad libitum access to Purina Mouse Chow (Pro Lab PMH 4018, Trademark of Agway, Syracuse, N.Y.) and water. […]
# At Day 16 after tumor inoculation, the animals were sacrificed and subjected to routine metastasis inspection. All organs were routinely screened, although metastatic formations were normally detected only in the lung. […] The data are expressed as means±SEM for the number of metastatic sites and as the percentage of the animals having metastasis for the incidence of metastasis development. Statistical significance was calculated according to the multiple range test of Duncan-Kramer. […]
# [2] = test system: Lewis Lung Carcinoma (3LL) Cell Line, subline H-59; experiment: XTT cytotoxicity assay, Lewis Lung Carcinoma 3LL (H-59) cells; assay type: cell-based; settings: Mus musculus, read-out: IC50, doxorubicin (concentration producing 50% inhibition of cell growth)
# Experimental: A highly metastatic clonal Lewis Lung Carcinoma cell subline H-59 (3LL) was used to evaluate cytotoxic activity of Prep. C and compare it with that of doxorubicin. To this end, the cells were suspended in RPMI 1640 medium supplemented with 10% fetal calf serum, and plated at 2000-3000 cells/well into 96-well microtiter plates. Prep. C in which doxorubicin final concentrations varied from 1 to 10,000 ng/ml was added to the cells and incubated for 2 hours at 37° C. and 5% CO2. The cells were then washed three times with RPMI 1640 and cultured for 4 days. Drug cytotoxicity was determined by a standard XTT assay. To this end, sterile 1 mg/ml XTT solution in RPMI 1640 containing 5 μl/ml of 1.54 μg/ml phenazine methasulfate solution in sterile PBS was added to the cells (100 μl/well) and incubated for 4 to 16 hours at 37° C. and 5% CO2. The absorbance at λ420 was determined using a microplate reader. All the experiments were carried out in triplicate. SEM values were less than 10% (P<0.05). the concentrations of free doxorubicin and doxorubicin in Prep.
structure (smiles),measurement,setting,value
"COc1cccc2c1C(=O)c1c(O)c3c(c(O)c1C2=O)C[C@@](O)(C(=O)CO)C[C@@H]3O[C@H]1C[C@H](N)[C@H](O)[C@H](C)O1 [Doxorubicin, doxorubicin]",Incidence (animals having metastasis),[1]; Day 16,100%
same,Number of metast. sites on lung periphery ±SEM,[1]; counted Day 16,8.90 ± 2.56
same,IC50,[2],0.11 µg/mL

# Reference: patent publication US6060518A, “Polymer compositions for chemotherapy and methods of treatment using the same” (Supratek Pharma Inc., priority 1996, dated 2000)
